Type in all cases: cell-based
Series [1] deals with 184B5 (non-malignant mammary epithelium). The experiment in a line: MTT viability assay, 184B5. The note with it: 184B5 non-malignant, 72 h, MTT; for CC50: read-out: LC50 (the source's name).
The subject of series [2] is MCF7 cells. Put plainly: Caspase and autophagy inhibitors assay (Z-VAD-FMK, wortmannin; TUNEL). The conditions noted are these: MCF7, 50 μM Z-VAD-FMK 1 h pre-incubation, compound 5 25 μM or compound 15 30 μM, 48 h. On the procedure:
Se compounds induce different types of cell death, among which apoptosis and autophagy are the most common. To further elucidate the pathway through which compounds 5 and 15 trigger cell death, we used Z-VAD-FMK, a pan-caspase inhibitor and wortmannin, a PI3K inhibitor which blocks autophagy. MCF7 cells were pre-incubated for 1 h with 50 μM of Z-VAD-FMK or 100 nM wortmannin and co-incubated with compound 5 (25 μM), compound 15 (30 μM) or vehicle (control) for 48 h. Treated cells without inhibitors were also included.
2 × 10^6 MCF7 cells were seeded in 25 cm^2 flasks. After 24 h, cells were pre-treated with 50 μM of the pan-caspase inhibitor Z-VAD-FMK (BD Pharmingen) or 100 nM wortmannin (Santa Cruz Biotechnology, Heidelberg, Germany) for 1 h before co-incubating them with 25 μM of compound 5, 30 μM of compound 15 or vehicle (maximum amount of DMSO used in the treatments) for 48 h. Cells were collected and processed with the Apo-Direct kit as described previously.
Figure 6 Cell death induced by compounds 5 and 15 involves the caspases pathway. MCF7 cells were pre-incubated with 50 μM of Z-VAD-FMK or 100 nM wortmannin for 1 h before treating cells with compound 5 (25 μM), compound 15 (30 μM) or vehicle (control) for 48 h. Cells were stained with the Apo-Direct kit (TUNEL assay) and analyzed by flow cytometry. […]

The test system of series [3] is MCF7 cells. The experiment in a line: Cell death analysis (TUNEL, Apo-Direct kit, flow cytometry). The conditions noted are these: for cell death time dependence: MCF7, time-course, 15 μM compound 5 or 30 μM compound 15, TUNEL; for dead cells: MCF7, 30 μM, TUNEL. The method, then: Induction of cell death is the major aim of antitumor drugs. We analyzed cell death progression using the TUNEL technique (in the Apo-Direct kit), which is based on DNA fragmentation. MCF7 cells were treated with increasing concentrations of compounds 5 and 15 for 24 h or with 30 μM of compound 15 or 15 μM of compound 5 for different times. The negative control was treated with vehicle, and camptothecin (6 μM) was included as a positive control.
3 × 10^6 or 2 × 10^6 MCF7 cells were seeded in 25 cm^2 flasks for treatments up to 24 h or 48 h, respectively. DMSO (vehicle) or the dissolved compounds were added 24 h after seeding and cells were incubated for different times at 37 °C under 5% CO2. Cell cycle and cell death were analyzed simultaneously with the Apo-Direct kit (BD Pharmingen, Madrid, Spain), following the manufacturer’s protocol. Briefly, cells were fixed in 1% paraformaldehyde for 45 min at 0 °C, washed with PBS and incubated for at least 30 min in 70% ethanol on ice. Cells were then stained both with FITC-dUTP (1 h, 37 °C) and propidium iodide (30 min, room temperature) and analyzed by flow cytometry using a Coulter Epics XL cytometer (Beckman Coulter, Brea, CA, USA).
Figure 5 Cell death induction is dose and time-dependent for compound 15 in MCF7. MCF7 cells were treated with vehicle (control) or increasing doses of compound 5 or 15 for 24 h. For the time-course experiment, MCF7 cells were treated with vehicle (control), compound 5 (15 μM) or compound 15 (30 μM) for different times. Camptothecin (6 μM) was included as positive control. Cells were stained with the Apo-Direct kit (TUNEL assay) and analyzed by flow cytometry. (A) Dose-dependent cell death at 24 h; (B) Time-course analysis of cell death.

For the substance “Methyl 3-chlorothiophen-2-carboselenoate [Compound 5]”, in series [1], the 50% growth inhibitory concentration (GI50) was 3.5 ± 0.4 µM, the TGI stood at 5.9 ± 0.3 µM and the CC50 was 8.3 ± 0.2 µM. The “decrease of cell death in the presence of the pan-caspase inhibitor Z-VAD-FMK” value with MCF7 cells [2] was 36%. The “cell death time dependence” value in the series with MCF7 cells [3] is listed as “highest values of cell death for compound 5 were observed after 4 h treatment”.

On to “Dimethyl 2,5-furandicarboselenoate [Compound 15]”, for which, in series [1], the 50% growth inhibitory concentration (GI50) worked out at 3.5 ± 1.1 µM, the TGI is 6.4 ± 0.5 µM and the CC50 stood at 9.2 ± 0.9 µM. Further, in the series on MCF7 cells [2], the “decrease of cell death in the presence of the pan-caspase inhibitor Z-VAD-FMK” value came to 14%. In the series with MCF7 cells [3] (4 h), the dead cells stood at 20%. Further, the dead cells in the series on MCF7 cells [3] (48 h) is reported as 80%. The “cell death time dependence” value in the series on MCF7 cells [3] is recorded as “caused cell death in a time-dependent manner”.

Source of the values: PMC6152192, “Novel Methylselenoesters as Antiproliferative Agents” (Molecules : A Journal of Synthetic Chemistry and Natural …, 2017).
